These results are taken from patent publication US20210340629A1, “BIOMARKERS FOR CANCER THERAPY” (The Council of the Queensland Institute of Medical Research, priority 2018, published 2021).

What all share (type): cell-based, human
The test system of one assay is melanoma cell lines. As to the kind of experiment: Cell viability by MTT assay, melanoma cell lines. To be noted: 5 μM, 48 hours, vs vehicle (DMSO), FIG. 2. The procedure:
UNC0642 was purchased from Sigma Aldrich. The panel of human melanoma cell lines, derived from cutaneous melanomas, is shown in Table 1 and the cells have all been previously described. Cells were maintained in Roswell Park Memorial Institute (RPMI) 1640 supplemented with 10% fetal bovine serum (FBS), 100 U/mL penicillin, and 100 µg/mL streptomycin in a humidified atmosphere of 5% CO2 at 37° C. Normal melanocytes were grown in Clonetics™ MGM™-4 Melanocyte Growth Medium-4 supplemented with CaCl2, phorbol-12-myristate 13-acetate (PMA), recombinant human fibroblast growth factor basic (rhFGF-B), recombinant human insulin (rh-insulin), hydrocortisone, bovine pituitary extract (BPE), FBS and GA-1000 (30 μg/ml Gentamycin and 15 ng/ml Amphotericin) (Lonza).
For proliferation studies, cells (5×10^3) were seeded in 96-place wells and allowed to adhere overnight, and incubated in fresh growth medium in the presence of either the G9a inhibitor UNC0642 (Sigma Aldrich) or the vehicle control DMSO (Sigma Aldrich). Proliferation was evaluated via real-time imaging using IncuCyte Zoom (Essen BioScience) and/or by performing a 3-(4,5-dimethylthiazol-2-yl)-2,5-diphenyltetrazolium bromide ([…]) assay. After monitoring the cells, 20 μL of MTT (5 mg/mL; Sigma-Aldrich) was added. […] The absorbance value (optical density) of each well was measured at 570 nm.

In assay [1] the test system is D05 and C008 melanoma cell lines. As to the kind of experiment: Proliferation by IncuCyte Zoom real time cell imaging, sensitive lines. The procedure:
Four cell lines were then chosen for further analysis. These were C006 (NRAS mt), C092 (Triple wt), C008 (NF1 mt) and D05 (BRAF mt). These four lines are representatives of the 4 cutaneous melanoma genomic subtypes and include 2 lines (C008 and D05) that were very sensitive to the inhibitor and 2 lines that were less sensitive (C006 and C092). Proliferation of these lines was evaluated by real time cell imaging using IncuCyte Zoom where cells were grown for 48 hours in the presence or absence of 5 μM UNC0642.
For proliferation studies, cells (5×10^3) were seeded in 96-place wells and allowed to adhere overnight, and incubated in fresh growth medium in the presence of either the G9a inhibitor UNC0642 (Sigma Aldrich) or the vehicle control DMSO (Sigma Aldrich). Proliferation was evaluated via real-time imaging using IncuCyte Zoom (Essen BioScience) and/or by performing a 3-(4,5-dimethylthiazol-2-yl)-2,5-diphenyltetrazolium bromide ([…]) assay. After monitoring the cells, 20 μL of MTT (5 mg/mL; Sigma-Aldrich) was added. The plates were incubated at 37° C. for 3 h before the supernatants were removed, and 100 μL of isopropanol was added to each well. The absorbance value (optical density) of each well was measured at 570 nm.

The subject of another assay is MAP1LC3B promoter. As to the kind of experiment: Chromatin immunoprecipitation (ChIP) on the MAP1LC3B promoter. To be noted: D05 cells, 5 μM, 24 h, FIG. 9. The procedure:
In order to ascertain whether the inhibition of G9a directly impacts MAP1LC3B expression, chromatin immunoprecipitation (ChIP) was performed on the MAP1LC3B promoter. Changes in histone H3K9 dimethylation (H3K9me2) and acetylation (H3K9Ac), as well as the recruitment of RNA Pol II, were compared between vehicle or UNC0642 treated cells (FIG. 9). Consistent with the increase in gene expression observed in FIG. 8, there was a greater than 4-fold reduction in H3K9me2 concomitant with an increase in RNA Pol II recruitment at the MAP1LC3B promoter following UNC0642 treatment.
(§1) Quantitative RT-PCR and ChIP assays were conducted as previously described (Lee et al. (2010) Mol Cell 39, 71-85). Briefly, total RNA was isolated from either the tumor cells or from xenografts using Trizol (Invitrogen) and reverse transcription was performed from 2 μg of total RNA using the Superscript III cDNA synthesis system (Invitrogen). The abundance of mRNA was detected by an ABI VIIA7 system with SYBR Green Master Mix (Life Technologies). Primer pairs were designed to amplify 90-150 bp mRNA specific fragments and were confirmed as unique products by melting curve analysis. The quantity of mRNA was calculated using the ΔΔCt method and normalized to HPRT. All reactions were performed in triplicates.

A further assay has as its system H3K9me2. Briefly: Immunoblotting analysis of global H3K9me2. To be noted: D05 and C008 cell lines, as early as 8 hours and persisted to 24 hours, FIG. 3B. The procedure:
For immunoblotting, protein whole cell lysates were prepared using RIPA lysis buffer containing 20 mM Tris, pH 8.0, 150 mM NaCl, 10% glycerol, 1% Nonidet P-40 containing protease inhibitor cocktail (Roche). Nuclear extracts were obtained using a standard high salt extraction buffer (20 mM HEPES (pH 7.9), 0.32 M NaCl, 1 mM EDTA, and 1 mM EGTA) supplemented with 1mM DU and protease inhibitor cocktail. Protein assays were performed according to the Bradford method using a protein assay kit (BioRad). […] of denatured proteins were separated using 10% sodium dodecyl sulfate-polyacrylamide gel electrophoresis (SDS-PAGE) and transferred to Polyvinylidene difluoride (PVDF) membranes. The membranes were blocked for 1 hour in 5% skim milk in Tris-buffered saline with Tween 20 (TBST; 10 mM Tris-HCl, 150 mM NaCl, 0.1% Tween 20). Immunoblotting was performed with primary anti G9a (#3306, Cell Signaling), H3K9me2 (ab 1220, Abcam), H3 (ab1791, Abcam) or Tubulin (ab6046, Abcam) and detected with either HRP-conjugated anti-rabbit (#7074, Cell Signaling Technology) or HRP-conjugated anti-mouse (#7076, Cell Signaling Technology). After applying ECL detection reagents (GE Healthcare), protein bands were visualized using X-ray film (Fujifilm).
For orientation: Immunoblotting shows a protein as a band on a membrane.

The subject of another assay is C092 cell line. As to the kind of experiment: Cell viability of C092 with LC3B knock down following G9a inhibitor treatment. To be noted: data not shown. An excerpt:
Therefore, the basal levels of important autophagy related proteins were examined in the melanoma cell lines used in this study. It is has been shown that the inhibition of G9a can cause an induction of the autophagy-related gene 5 (ATG5), Beclin-1 (known also as ATG6) and the conversion of microtubule-associated protein 1 light chain 3 beta (MAP1LC3B or LC3B for short) I (17 KDa) to LCB3 II (15 KDa) through proteolytic cleavage and lipidation (de Narvajas et al. (2013) and Li et a. (2015). These changes are considered a hallmark of mammalian autophagy. When cells undergo autophagy, conversion of a fraction of cytoplasmic LC3B Ito autophagic membrane form LC3B II can be detected by western blot or by immunofluorescence. This conversion correlates with autophagic activity (Kabeya et al (2000) Embo J 19, 5720-5728), therefore the levels of LC3B II can be considered a reliable marker of autophagy. […] To assess whether lowering LC3B levels in the C092 non-responsive cell line would allow increased sensitivity to the G9a inhibitor treatment, cell viability of C092 following G9a inhibitor treatment was assessed.

A further assay deals with MAP1LC3B. Briefly: Quantitative real time PCR of MAP1LC3B expression in melanoma cell lines. To be noted: 24 hours. On the procedure:
as §1
(In general: Quantitative PCR measures a nucleic acid by following its amplification.)

In the case of `COc1cc2c(NC3CCN(C(C)C)CC3)nc(N3CCC(F)(F)CC3)nc2cc1OCCCN1CCCC1` [UNC0642], the “Cell survival (cell viability, MTT assay)” value in the assay on melanoma cell lines was “significantly attenuated”. Also, the proliferation result in assay [1] (D05 and C008, 5 μM, 48 hours, compared to vehicle control, data not shown) is “significant reduction in proliferation”. Besides, the number of cells entry in assay [1] (over 48 hours treatment, 5 μM, FIG. 3A) is reported as “significantly decreased”. In the assay on MAP1LC3B promoter, the “RNA Pol II recruitment at the MAP1LC3B promoter” value is on record as “increase” and the “reduction in H3K9me2 at the MAP1LC3B promoter” value is recorded as “greater than 4 fold”. In the assay with H3K9me2, the “global H3K9me2” value is “reduction”. For the same compound, the “cell viability following G9a inhibitor treatment” value in the assay on C092 cell line is listed as “significantly reduced”. In addition, the “induction of MAP1LC3B expression” value in the assay with MAP1LC3B (less sensitive cells (C006 and C092), no statistically significant difference to vehicle, FIG. 8) was “minimal”. Also, the “MAP1LC3B expression, induction compared to vehicle control” value with MAP1LC3B (very sensitive lines (D05 and C008), P<0.05, FIG. 8) is on record as roughly 2 fold.
